Reference: patent US20020111314A1, “Novel stimulation of gene expression and protein synthesis of heat shock protein 72/73 (Hsp 70)” (The Trustees of Columbia University, priority 1995, published 2002)
Entries after “also recorded” stand apart in the source; their conditions may differ. Numbered stars: 1 amine (or outer) side, 2 acyl side, 3 side chain; on linkers, the order of the positions; unused ones are H or OH. Bridge positions count the residues as written; N and C are the ends. Square brackets hold non-standard residues; d marks the D form. Peptide text beside a SMILES is read from it. I, II: the chains in the order shown. * marks the point of attachment. Actinocin(9to1) = Cc1c2oc3c(C)ccc(C(=O)[*:1])c3nc-2c(C(=O)[*:2])c(N)c1=O; Sta = CC(C)C[C@H](N)[C@@H](O)CC(=O)O; NMeV = CN[C@H](C(=O)O)C(C)C; Isovaleryl = CC(C)CC(=O)*; Cbz = O=C(OCc1ccccc1)*; Sar = CNCC(=O)O

Assays:
[1] = tested on: proteasomes; conditions: Rock, et al., 1994; cited from earlier work
[2] = tested on: cysteine proteases, calpain and cathepsin B; conditions: Rock, et al., 1994; cited from earlier work
[3] = tested on: Hsp70; test: Hsp70 induction in HepG2 cells ([3H]-leucine labeling, denaturing immunoprecipitation); type: cell-based, human; conditions: HepG2; for induction of Hsp70 by protease inhibitors (FIG. 3A): 4 h pre-treatment, ALLN 40, ALLM 40, leupeptin 50, pepstatin A 50, E-64d 25 μg/ml, PMSF 1 mM, aprotinin 100 KIU/ml
Description: HepG2 cells were grown up to 95% confluence and then preincubated for 4 hours in a 37° C. incubator with serum-free minimum essential medium (MEM), followed by radiolabeling with 3H-leucine (150 μCi/ml) dissolved in serum-free, leucine-free medium. Preincubation and labeling medium each contained 1.5% bovine serum albumin (BSA) plus different concentrations of ALLN as indicated. After labeling, cells were collected and lysed, and Hsp70 was immunoprecipitated under denaturing conditions as described under Experimental Details. Cell lysates containing an equal amount of TCA-insoluble radioactivity were used for immunoprecipitation. (A): The immunoprecipitates were analyzed by sodium dodecyl sulfate-polyacryamide gel electrophoresis (SDS-PAGE) and fluorography. Numbers on the left-hand side denote molecular markers. (B): The Hsp70 radioactivity was quantitated by scintillation counting and plotted. All the values were presented as means±SD from three individual culture dishes.
(§1) FIGS. 3A-3B: Effects of the other protease inhibitors on Hsp70 biosynthesis in HepG2 cells. HepG2 cells were preincubated in serum-free MEM containing either 1.5% BSA alone (Control), or BSA plus 40 μg/ml of ALLN, 40 μg/ml of ALLM, 50 μg/ml of leupeptin, 50 μg/ml of pepstatin A, 25 μg/ml of E-64d, 1 mM of phenylmethylsulfonyl fluoride (PMSF), 100 KIU/ml of apotinin, 1 mM of Benzamidine (Benz), 200 μM of calpain inhibitor peptide (CIP). Radiolabeling (in the presence of protease inhibitors), lysis and immunoprecipitation were performed as described in FIG. 1. The Hsp70 specific radioactivity (A) and the amount of total incorporated radioactivity (TCA-cpm) (B) were compared with each other. All the values were presented as the mean±SD from three individual culture dishes.
FIGS. 9A-9B: Effects of proteasome inhibitors on Hsp70 induction. HepG2 cells were preincubated with the proteasome inhibitors MG132 at a final concentration of either 10 μM or 30 μM (A), or lactacystin at 10 μM (B) for 4 hours under conditions described in FIG. 3. These cells were then subjected to radiolabeling (30 min), cell lysis, and immunoprecipitation with anti-Hsp70 antibody. The experiments with MG132 (A) were repeated twice; the effects of lactacystin (B) were studied in triplicate culture dishes.
ALLN, leupeptin, mouse anti-human Hsp72/73 monoclonal antibody, a secondary antibody conjugated with horseradish peroxidase (HRP) (goat anti-rabbit immunoglubin G [IgG]), and rabbit anti-rat IgG antibody were from Boehringer Mannheim Co. Anti-Human Hsp25 and anti-human Hsp60 monoclonal antibodies, ALLM, Calpain inhibitor peptide (CIP), dimethyl sulfoxide (DMSO) and dithiothreitol (DTT) were from Sigma. Human Hsp70 oligonucleotide probe was from Oncogene Science. This oligonucleotide was ^32P labeled at the 5′-end by T4 Kinase, which was from Biolabs. ^32P was from ICN Pharmaceutical Inc. L-[4,5-^3H] leucine was from Amersham Co. Anti-human Bip (immunoglobulin heavy chain binding protein, also called Grp78), anti-human Hsp27, anti-human Hsp60, and anti-human Hsp90 monoclonal antibodies were from Stress Genes. Anti-human Hsp86 and Hsp104 antibodies were from Affinity Bioreagent Inc. Nitrocellular transfer and immobilization membranes were from Schleicher & Schuell, Keene, N.H. RNA extraction kits were from Biotect, Tex. The polyclonal antibody against the human HSF1 protein was a generous gift from Dr. Carl Wu of the National Institute of Health (Rabindran, et al., 1993). Ethylene glycol bis(succunimidylsuccinate) (EGS) was from Pierce. Cbz-leucyl-leucyl-leucinal (MG132) was a gift of Dr. H. Ploegh at the Massachusetts Institute of Technology. All the other tissue culture supplies and chemicals were obtained from supplies as previously described (Dixon, et al., 1991). The HepG2 cell culture conditions were maintained as previously described (Dixon, et al., 1991).

[4] = tested on: HepG2 cells; test: Total incorporation of radiolabel (TCA cpm) as indicator of cell toxicity in HepG2 cells; type: cell-based, human; conditions: MG132 10 or 30 μM, lactacystin 10 μM, data not shown
Description: as §1
Preincubation and labeling media each contained either 1.5% bovine serum albumin (BSA) alone, or BSA plus ALLN (40 μg/ml except as otherwise indicated), or BSA plus other protease inhibitors at concentrations indicated in the figure legends. At the indicated times, cells were removed from the 37° C. incubator and placed on ice, washed with cold phosphate-buffer saline (PBS) twice and lysed with lysis buffer containing 1% Triton X-100 (TX100), 1% deoxycholic acid (DOC) and 0.1% SDS in PBS containing proteinase inhibitors: 2 mM phenylmethylsulfonyl fluoride (PMSF); 2 μg/ml ALLN; 2 μg/ml leupeptin; and 2 μg/ml aprotinin. After a 30 min. incubation with lysis buffer at 4° C., the lysates were centrifuged at 14,000 g in a microcentrifuge for 5 min., and the supernatants were adjusted to 1% SDS concentration and boiled for 5 min. to denature the proteins. 1% TX100 was then added to dilute the lysates to a final concentration of 0.1% SDS. Cell lysates containing equal amounts of trichloroacetic acid (TCA)-insoluble radioactivity were used for immunoprecipitations by incubating with individual monoclonal antibody (1 μg/ml) for 2.5 hours at 4° C. Protein-A Sepharose 4B was added afterwards and the lysates incubated for another 1.5 hours at 4° C. to collect the immunocomplexes. […]

[5] = tested on: hsp70, i.e. hsp72, mRNA; test: Northern blot of hsp70 (hsp72) mRNA in HepG2 cells; type: cell-based, human; conditions: ALLN 40 μg/ml plus actinomycin D 10 μg/ml or cycloheximide 50 μg/ml, 4 hours
Description: After 4 hours treatment at 37° C., cells were harvested. (B). […] The total RNA was prepared, and equal amounts of the samples were loaded and run on a 1% formaldehyde-agarose gel, blotted onto a nylon membrane, and subsequently hybridized with specific synthetic oligonucleotide probes for hsp70 mRNA as described under Experimental Details. The position of 28S and 18S rRNA are shown for reference.
Equal amounts of tRNA samples (10 μg) were size-fractionated on a 1% agarose-formaldehyde gel according to the methods described (Maniatis, et al., 1982) and transferred to a piece of QIAGEN plus nylon membrane. To determine loading and transfer efficiency, RNA was stained with ethidium bromide before and after transfer. The membrane was baked for 30 min. at 80° C. in vacuo (a vacuum) followed by UV cross-linking. It was then incubated for 4 hours at 65° C. in a prehybridization mixture containing 10% dextran sulfate, 1% SDS, 1M sodium chloride, 50 mM Tris-HCl (pH 7.5) and 100 μg/ml denatured salmon sperm DNA. […] The membrane was then washed four times with 2×SSC, 0.1% SDS at room temperature, one time at 65° C. for 30 min., and one time at room temperature again for 5 min., and finally rinsed with 2×SSC at room temperature.

[6] = tested on: HSF1; test: HSF1 steady-state level and trimerization (Western blot, EGS cross-linking) in HepG2 cells; type: cell-based, human
Description: HepG2 cells were treated with serum-free MEM containing 1.5% BSA for 2 hours at 37° C. without any additions (lane 1), at 37° C. but containing 40 μg/ml of ALLN in the medium (lane 2), at 37° C. in a medium containing both ALLN and 50 μg/ml of cycloheximide (lane 3), at 42° C. alone (lane 4), or at 42° C. plus cycloheximide in the medium (lane 5). Cell lysates were prepared as described under Experimental Details. The lysates were either directly run on the SDS-PAGE (A) to show the steady-state protein levels of HSF1 or subjected to cross-linking with ethylene glycol bis sucrinimidylsuccinate (EGS) before running the gel (B) to show the oligomeric forms of HSF1. The proteins were then transfered to a nitrocellulose membrane and immunoblotted with anti-human HSF1 antibody. Arrows on the right side indicates the monomeric, dimeric or trimeric forms of HSF1, respectively. This experiment was repeated three times with identical results.
Total RNA was prepared using the procedure of Chomczynski and Sacchi (Chomczynski, et al., 1987) and a commercially prepared reagent, TRISOLV™ (Biotecx Laboratories Inc., TX). Equal amounts of tRNA samples (10 μg) were size-fractionated on a 1% agarose-formaldehyde gel according to the methods described (Maniatis, et al., 1982) and transferred to a piece of QIAGEN plus nylon membrane. To determine loading and transfer efficiency, RNA was stained with ethidium bromide before and after transfer. The membrane was baked for 30 min. at 80° C. in vacuo (a vacuum) followed by UV cross-linking. It was then incubated for 4 hours at 65° C. in a prehybridization mixture containing 10% dextran sulfate, 1% SDS, 1M sodium chloride, 50 mM Tris-HCl (pH 7.5) and 100 μg/ml denatured salmon sperm DNA. Hybridization was carried out for 18 hours at 65° C. in the same buffer with a ^32P-labeled (1×10^6 cpm/ml) 40-mer oligonucleotide probe to the untranslated 5′ region of a human hsp70 gene (Oncogene Science). […] The membrane was then washed four times with 2×SSC, 0.1% SDS at room temperature, one time at 65° C. for 30 min., and one time at room temperature again for 5 min., and finally rinsed with 2×SSC at room temperature. This membrane was air dried and exposed to X-ray film at −80° C. for 48 hours. For measurement of the steady-state HSF1 protein levels, whole cell extracts were prepared by lysing the cells directly with 2×SDS-sample buffer (Maniatis, et al., 1982). For chemical cross-linking experiments, whole-cell extracts were prepared as described (Mosser, et al., 1988). Briefly, the cold PBS-washed cell pellets were quickly and repeatedly frozen in liquid nitrogen. […]

CSCC[C@@H](C=O)NC(=O)[C@H](CC(C)C)NC(=O)[C@H](CC(C)C)NC(C)=O [ALLM, N-acetyl-leucyl-leucyl-methioninal] (Ac-Leu-Leu-Met-aldehyde)
inhibition of proteasomes [1]: potent inhibitors | activities against calpain and cathepsin B [2]: significant activities | induction of Hsp70 by protease inhibitors (FIG. 3A) [3]: significantly induce; also recorded: less ability to induce Hsp70 levels

CC(=O)N[C@@H](CC(C)C)C(=O)N[C@@H](CC(C)C)C(=O)N[C@H](C=O)CCCNC(=N)N [Leupeptin, leupeptin]
induction of Hsp70 by protease inhibitors (FIG. 3A) [3]: ineffective

CC(C)C[C@@H](C=O)NC(=O)[C@H](CC(C)C)NC(=O)[C@H](CC(C)C)NC(=O)OCc1ccccc1 [MG132, Cbz-leucyl-leucyl-leucinal] (Cbz-Leu-Leu-Leu-aldehyde)
toxicity to the cells (TCA-precipitable radioactivities) [4]: without obvious toxicity | induction of Hsp70 levels by proteasome inhibitors (FIG. 9) ([3]; 4 hours, MG132 10 μM or 30 μM, lactacystin 10 μM, 30 min labeling): induced Hsp70 levels dramatically

O=S(=O)(F)Cc1ccccc1 [PMSF, phenylmethylsulfonyl fluoride]
induction of Hsp70 by protease inhibitors (FIG. 3A) [3]: No induction

Cc1c2oc3c(C)ccc(C(=O)N[C@@H]4C(=O)N[C@H](C(C)C)C(=O)N5CCC[C@H]5C(=O)N(C)CC(=O)N(C)[C@@H](C(C)C)C(=O)O[C@@H]4C)c3nc-2c(C(=O)N[C@@H]2C(=O)N[C@H](C(C)C)C(=O)N3CCC[C@H]3C(=O)N(C)CC(=O)N(C)[C@@H](C(C)C)C(=O)O[C@@H]2C)c(N)c1=O [actinomycin D] (I: T[dV]P[Sar][NMeV] / II: T[dV]P[Sar][NMeV]; ester I:1-I:C, II:1-II:C; linker I:N-II:N via Actinocin(9to1))
effect of co-treatment on ALLN-induced increase in hsp72 mRNA [5]: abolished the effects of ALLN

C[C@@H]1C[C@@H]([C@H](O)CC2CC(=O)NC(=O)C2)C(=O)[C@@H](C)C1 [cycloheximide]
effect on heat shock-associated HSF1 trimerization ([6]; 42° C. plus cycloheximide 50 μg/ml): did not, however, affect | effect of cotreatment on ALLN-induced HSF1 trimerization ([6]; ALLN 40 μg/ml plus cycloheximide 50 μg/ml, 37° C.): abolished the effect of ALLN on HSF1 trimerization | effect of co-treatment on ALLN-induced increase in hsp72 mRNA [5]: abolished

CC(C)CC(=O)N[C@H](C(=O)N[C@H](C(=O)N[C@@H](CC(C)C)[C@@H](O)CC(=O)N[C@@H](C)C(=O)N[C@@H](CC(C)C)[C@@H](O)CC(=O)O)C(C)C)C(C)C [pepstatin] (Isovaleryl-VV[Sta]A[Sta]-OH)
induction of Hsp70 by protease inhibitors (FIG. 3A) [3]: No induction

aprotinin
induction of Hsp70 by protease inhibitors (FIG. 3A) [3]: No induction
